# Assay: in vivo
# Set-up: species or system swine
# Conditions: for AUMC / AUMClast / AUCINF / AUC_Exp / AUC∞ extrpl / Lamda_HL / Lamda_Z / λZ / T1/2λZ: both; for Lamda_HL / Lamda_Z / λZ / T1/2λZ: swine
# Description: Blood samples for firocoxib determination were collected from the sows and three piglets/litter (two male and one female piglet at each time point) at 0, 2, 4, 6, 8, 12, 24, 48, 72, 96, and 120 h post-drug injection to the sow. The blood sample from each sow (8 mL/sample) was collected via the left or right jugular vein using a 25.4-mm, 16-gauge hypodermic needle (Air-Tite Products, Virginia Beach, Va.) attached to a 12-mL Luer-Lok syringe (TycoHealth Care, Mansfield, Mass.). During blood collection, a pig snare was used for manual restraint of each sow in her crate. The blood samples (2 mL/sample) from the piglets were collected from the left or right cranial vena cava using a 3.8-cm, 20-gauge hypodermic needle (TycoHealth Care, Mansfield, Mass.) attached to a 3-mL syringe (TycoHealth Care, Mansfield, Mass.). Physical restraint of the piglet was achieved by placing the animal in a supine position during sample collection. Blood samples were transferred to 6-mL evacuated tubes that contained lithium heparin (Vacuette plasma tubes, Greiner Bio-One, Monroe, N.C.) that were stored on ice for up to 2 h before processing. The blood samples were centrifuged for 10 min at 1,500×g. The plasma was then removed, placed in cryovials, and frozen at −80° C. until analysis.
# On Day 0, the pharmacokinetic portion of the study commenced. The test article was administered intramuscularly in the right neck to sows. Blood samples for Firocoxib determination were collected by jugular venipuncture from sows and 3 piglets/litter (2 male and one female at each timepoint) at 0, 2, 4, 6, 8, 12, 24, 48, 72, 96 and 120 hours after drug injection in the sow.
# Plasma concentrations of firocoxib were determined using high-pressure liquid chromatography (Agilent 1100 Pump, Column Compartment and Autosampler, Agilent Technologies, Santa Clara, Calif., USA) with mass spectrometry detection (LTQ Ion Trap, Thermo Scientific, San Jose, Calif., USA). Briefly, frozen samples or standards were thawed at room temperature and rigorously vortexed once completely thawed. […] Plasma samples, plasma spikes, plasma quality control samples, and blanks (100 μL) were then protein-precipitated in 1.5-mL microcentrifuge tubes with 400 μL acetonitrile/0.1% formic acid. A d6-firocoxib internal standard was incorporated into the acetonitrile precipitating agent at a concentration of 200 ng/mL. The samples were vortexed for 5 seconds after addition of the acetonitrile and centrifuged for 20 min at 3,773×g to sediment the protein pellet. Following centrifugation, the supernatant was poured into cell culture tubes and evaporated to dryness in a Turbovap concentration evaporator at 48° C. The tube contents were reconstituted with 150 μL 25% acetonitrile and transferred to autosampler vials equipped with 300-μL glass inserts. The samples were centrifuged at 770×g before liquid chromatography-mass spectroscopy (LC-MS) analysis.
# Twelve calibration spikes were prepared in blank porcine plasma in the concentration range of 1-5,000 ng/mL for the samples from the sows. The samples from the piglets were analyzed using a narrower range of calibration spikes of 1-500 ng/mL. A linear (1/X) fit was used for the piglet plasma samples and the narrower 1-500 ng/mL concentration range. A quadratic (1/X) fit was used for the sow plasma samples and the 1-5,000 ng/mL concentration range.
# Plasma and tissue firocoxib concentrations were determined using high-pressure liquid chromatography (Agilent 1100 Pump, Column Compartment and Autosampler, Agilent Technologies, Santa Clara, Calif.) with mass spectrometry detection (LTQ Ion Trap, Thermo Scientific, San Jose, Calif.). A 25-μL injection volume was used for the LC-MS analysis. The mobile phases were A (0.1% formic acid in water) and B (0.1% formic acid in acetonitrile), at flow rates of 0.275 mL/min. […]
structure (smiles),measurement,setting,value
CC1(C)OC(=O)C(OCC2CC2)=C1c1ccc(S(C)(=O)=O)cc1 [firocoxib],AUC(0-inf),"both sexes, pig, 0.5 mg/kg",690 ng·h/mL
same,AUC(0-t),"both sexes, pig, 0.5 mg/kg, Piglet AUClast",635 ng·h/mL
same,AUC(0-inf),"both sexes, pig, 1 mg/kg",3180 ng·h/mL
same,AUC(0-t),"both sexes, pig, 1 mg/kg, Piglet AUClast",2470 ng·h/mL
same,AUC(0-inf),"both sexes, pig, 1.5 mg/kg",4620 ng·h/mL
same,AUC(0-t),"both sexes, pig, 1.5 mg/kg, Piglet AUClast",3900 ng·h/mL
same,AUC(0-inf),"both sexes, pig, 2 mg/kg",3650 ng·h/mL
same,AUC(0-t),"both sexes, pig, 2 mg/kg, Piglet AUClast",3220 ng·h/mL
same,half-life,"both sexes, pig, im",30.9 to 48.7 h
same,AUC(0-inf),"both sexes, pig, im, 0.5 mg/kg",690 ng·h/mL
same,Cmax,"both sexes, pig, im, 0.5 mg/kg",9.53 ng/mL
same,Tmax,"both sexes, pig, im, 0.5 mg/kg",24 h
same,AUC(0-t),"both sexes, pig, im, 0.5 mg/kg, AUC 0-24 h",176 ng·h/mL
same,AUC(0-t),"both sexes, pig, im, 0.5 mg/kg, AUC0-24h",176 ng·h/mL
same,AUC(0-t),"both sexes, pig, im, 0.5 mg/kg, AUC0-last",635 ng·h/mL
same,AUC(0-t),"both sexes, pig, im, 0.5 mg/kg, AUClast",635 ng·h/mL
same,MRT last,"both sexes, pig, im, 0.5 mg/kg, MRT0-last",44.8 h
same,MRT last,"both sexes, pig, im, 0.5 mg/kg, MRT last",44.8 h
same,AUC(0-inf),"both sexes, pig, im, 1 mg/kg",3180 ng·h/mL
same,Cmax,"both sexes, pig, im, 1 mg/kg",31 ng/mL
same,Tmax,"both sexes, pig, im, 1 mg/kg",24 h
same,AUC(0-t),"both sexes, pig, im, 1 mg/kg, AUC 0-24 h",407 ng·h/mL
same,AUC(0-t),"both sexes, pig, im, 1 mg/kg, AUC0-24h",407 ng·h/mL
same,AUC(0-t),"both sexes, pig, im, 1 mg/kg, AUC0-last",2470 ng·h/mL
same,AUC(0-t),"both sexes, pig, im, 1 mg/kg, AUClast",2470 ng·h/mL
same,MRT last,"both sexes, pig, im, 1 mg/kg, MRT0-last",55.4 h
same,MRT last,"both sexes, pig, im, 1 mg/kg, MRT last",55.4 h
same,AUC(0-inf),"both sexes, pig, im, 1.5 mg/kg",4620 ng·h/mL
same,Cmax,"both sexes, pig, im, 1.5 mg/kg",53.3 ng/mL
same,Tmax,"both sexes, pig, im, 1.5 mg/kg",24 h
same,AUC(0-t),"both sexes, pig, im, 1.5 mg/kg, AUC 0-24 h",662 ng·h/mL
same,AUC(0-t),"both sexes, pig, im, 1.5 mg/kg, AUC0-24h",662 ng·h/mL
same,AUC(0-t),"both sexes, pig, im, 1.5 mg/kg, AUC0-last",3900 ng·h/mL
same,AUC(0-t),"both sexes, pig, im, 1.5 mg/kg, AUClast",3900 ng·h/mL
same,MRT last,"both sexes, pig, im, 1.5 mg/kg, MRT0-last",54.4 h
same,MRT last,"both sexes, pig, im, 1.5 mg/kg, MRT last",52.4 h
same,AUC(0-inf),"both sexes, pig, im, 2 mg/kg",3650 ng·h/mL
same,Cmax,"both sexes, pig, im, 2 mg/kg",44 ng/mL
same,Tmax,"both sexes, pig, im, 2 mg/kg",24 h
same,AUC(0-t),"both sexes, pig, im, 2 mg/kg, AUC 0-24 h",609 ng·h/mL
same,AUC(0-t),"both sexes, pig, im, 2 mg/kg, AUC0-24h",609 ng·h/mL
same,AUC(0-t),"both sexes, pig, im, 2 mg/kg, AUC0-last",3220 ng·h/mL
same,AUC(0-t),"both sexes, pig, im, 2 mg/kg, AUClast",3220 ng·h/mL
same,MRT last,"both sexes, pig, im, 2 mg/kg, MRT0-last",51.5 h
same,MRT last,"both sexes, pig, im, 2 mg/kg, MRT last",51.5 h
same,AUMC,"pig, 0.5 mg/kg",28433.00 h^2 × ng/mL
same,AUMClast,"pig, 0.5 mg/kg","28,443.00 h * h * ng/mL"
same,AUMC,"pig, 1 mg/kg",136805.00 h^2 × ng/mL
same,AUMClast,"pig, 1 mg/kg","136,805.00 h * h * ng/mL"
same,AUMC,"pig, 1.5 mg/kg",204246.00 h^2 × ng/mL
same,AUMClast,"pig, 1.5 mg/kg","204,246.00 h * h * ng/mL"
same,AUMC,"pig, 2 mg/kg",166016.00 h^2 × ng/mL
same,AUMClast,"pig, 2 mg/kg","166,016.00 h * h * ng/mL"
same,AUCINF,"pig, im, 0.5 mg/kg",690.47 ng·h/mL
same,AUC_Exp,"pig, im, 0.5 mg/kg",0.08%
same,AUC∞ extrpl,"pig, im, 0.5 mg/kg",0.08%
same,AUCINF,"pig, im, 1 mg/kg",3178.00 ng·h/mL
same,AUC_Exp,"pig, im, 1 mg/kg",0.22%
same,AUC∞ extrpl,"pig, im, 1 mg/kg",0.22%
same,AUCINF,"pig, im, 1.5 mg/kg",4615.17 ng·h/mL
same,AUC_Exp,"pig, im, 1.5 mg/kg",0.16%
same,AUC∞ extrpl,"pig, im, 1.5 mg/kg",0.16%
same,AUCINF,"pig, im, 2 mg/kg",3652.32 ng·h/mL
same,AUC_Exp,"pig, im, 2 mg/kg",0.12%
same,AUC∞ extrpl,"pig, im, 2 mg/kg",0.12%
same,Lamda_HL,0.5 mg/kg,30.86 h
same,Lamda_Z,0.5 mg/kg,0.02 h⁻¹
same,λZ,0.5 mg/kg,0.02 h⁻¹
same,Lamda_HL,1 mg/kg,48.71 h
same,Lamda_Z,1 mg/kg,0.01 h⁻¹
same,λZ,1 mg/kg,0.01 h⁻¹
same,Lamda_HL,1.5 mg/kg,37.91 h
same,Lamda_Z,1.5 mg/kg,0.02 h⁻¹
same,λZ,1.5 mg/kg,0.05 h⁻¹
same,Lamda_HL,2 mg/kg,32.42 h
same,Lamda_Z,2 mg/kg,0.02 h⁻¹
same,λZ,2 mg/kg,0.02 h⁻¹
same,T1/2λZ,"im, 0.5 mg/kg",30.86 h
same,T1/2λZ,"im, 1 mg/kg",48.71 h
same,T1/2λZ,"im, 1.5 mg/kg",37.91 h
same,T1/2λZ,"im, 2 mg/kg",32.42 h

# — patent US10434083B2, “Transmammary delivery of cyclooxygenase-2 inhibitors for analgesia in neonates” (Iowa State University Research Foundation, Inc., priority 2018, dated 2019)
